# Results published in US20200237670A1, “DYE-STABILIZED NANOPARTICLES AND METHODS OF THEIR MANUFACTURE AND THERAPEUTIC USE” (Memorial Sloan Kettering Cancer Center, priority 2015, published 2020).
# Columns and labels:
# [1] = tested on: BAEC, bEnd3, SB2, 3T3, BMDM and RAW264 cells; assay: In vitro uptake of IR783-SFB nanoparticles (fluorescence microscopy); type: cell-based; conditions: 2 h, 30 μg/ml particles or equivalent free dye
# Method: Bone marrow derived macrophages (BMDM), RAW264 macrophages, and 3T3 fibroblasts did take up the nanoparticles efficiently. […] FIG. 4B depicts quantitative analysis of fluorescence intensity in the cell lines was conducted using ImageJ v1.40 (NIH, USA). The mean fluorescence intensities are expressed in arbitrary units per square micron. The increased uptake by endothelial cells and cancer cells as opposed to macrophages and fibroblasts is about 4 fold. FIG. 4C depicts confirmation of the differential uptake between cell lines, 3T3 fibroblasts (GFP) were co-cultured with SB2 liver cancer cells (RFP) to confluence and incubated with nanoparticles for 30 min. The cell morphology of the co-culture can be seen in bright light (upper left, DIC) and fluorescence channel (upper right).
# The uptake of the sorafenib-IR783 nanoparticles (IR783-SFB) was tested in 6 cell types: endothelial cells (BAEC and bEnd3 cell line), liver HCC cells (SB2 cells, derived from the in vivo model), fibroblasts (3T3), and macrophages (BMDM and RAW264). The cells were incubated for 2 hours with 30 μg/ml and as a control with an equivalent amount of free IR783. The cells were washed and stained with Cell Mask (Life Sciences) for membrane staining and DAPI for nuclear staining. The cells were imaged with a florescence microscope equipped with an Indocyanine Green filter set, as depicted in FIGS. 4A-4B.
# [2] = tested on: MYC-driven autochthonous murine hepatic tumor; assay: MYC/β-catenin driven liver tumor model: targeting and biodistribution; type: in vivo, FVB mice; conditions: near-IR fluorescence of livers 24 h after i.v. injection, sodium salt
# Method: Sorafenib-containing nanoparticles were tested in vivo for imaging and treatment of hepatocellular carcinoma in an orthotopic model. FVB mice were transfected by hydrodynamic injection on day 0 with plasmids to C-Myc and beta-catenin to inoculate liver tumors. FIG. 5A depicts mice bearing liver tumors and healthy mice were injected with IR783-SFB (for example, at 20 mg/kg) at day 21 after inoculation. After 24 hours the livers were extracted and imaged using an IVIS Preclinical In Vivo Imaging System (Perkin Elmer) in fluorescence imaging mode. […] The tumors were also imaged by their GFP expression (right panel). […] The GFP expression in the tumors was also imaged (right panel).
# Next, the biodistribution of INPs in a MYC-driven murine hepatic tumor model was evaluated. To generate autochthonous liver tumors, Sleeping Beauty transposon vectors encoding c-Myc and mutant β-catenin (coupled to GFP) were hydrodynamically delivered into immunocompetent FVB mice along with a vector encoding Sleeping Beauty transposase as described herein.
# Hydrodynamic transfection was performed. […] Tumors were evaluated using fluorescence imaging (IVIS imaging system, Xenogen Corp., Hopkinton, Mass.) and immunohistochemistry (H&E). Tumor volume was measured using a caliper.
# [3] = tested on: endothelial cells; 3T3-GFP / SB2 co-culture; assay: Photodynamic therapy in cell culture (NIR irradiation); type: cell-based; conditions: 30 min incubation, 1 min xenon lamp, imaged after 24 h
# Method: The IR783-SFB nanoparticles were tested for the application of photodynamic therapy. The […] properties of the dyes may provide an added therapeutic benefit of the targeted nanoparticles. Endothelial and cancer cells were incubated with the nanoparticles for 30 min and then washed and exposed to NIR light from a Xenon lamp for 1 min. […] FIG. 8A depicts endothelial cells that were incubated for 30 min with NP and irradiated for 1 min with a xenon lamp (Xcite) using an ICG filter set (Chroma). […] After 24 h, the morphology of the irradiated area was altered and cells detached after washing (upper right).
# [4] = tested on: MYC-driven autochthonous murine hepatic tumor; assay: MYC/β-catenin driven liver tumor model: anti-tumor efficacy; type: in vivo, FVB mice; conditions: 30 mg/kg sorafenib p.o. or as INP i.v., weekly for three weeks; endpoint about day 60
# Method: For example, here 20 FVB mice were administered a hydrodynamic injection on day 0 with plasmids to C-Myc and beta-catenin to initiate liver tumors. The efficacy of IR783-SFB was compared to oral SFB. Treatments started at day 21 after inoculation and were administrated once weekly for 3 weeks.
# To test the therapeutic potential of the INPs in vivo, the anti-tumor efficacy of equivalent drug doses in the liver cancer mouse model described above were either delivered intravenously via INPs or the orally administered free drug. Sorafenib or sorafenib INPs were injected weekly over the course of three weeks. […] Furthermore, quantitative measures of liver weight, tumor volume, and GFP emission confirmed virtually complete tumor eradication in INP-treated livers (FIGS. 12D-12F).
# Hydrodynamic transfection was performed. Specifically, 10 μg pT3-EF1a-c-myc, 10 μg pT3-EF1a-β-CateninT41A-IRES-GFP and CMV-SB13 Sleeping Beauty transposase (1:5 ratio) were mixed in sterile saline solution. A total volume of plasmid-saline solution mix corresponding to 10% of the body weight was injected into the lateral tail vein of 6- to 8-week old female FVB/N mice (Jackson Laboratory, Me., USA) within 5-7 seconds. […] Tumors were evaluated using fluorescence imaging (IVIS imaging system, Xenogen Corp., Hopkinton, Mass.) and immunohistochemistry (H&E). Tumor volume was measured using a caliper.
# [5] = Nanoparticle formation with indocyanine IR783 by nano-precipitation (DLS / visual precipitation)
compound,measurement,setting,value
"CC1(C)C(=CC=C2CCCC(C=CC3=[N+](CCCCS(=O)(=O)[O-])c4ccccc4C3(C)C)=C2Cl)N(CCCCS(=O)(=O)[O-])c2ccccc21.[Na+] [IR783, 2-[2-[2-Chloro-3-[2-[1,3-dihydro-3,3-dimethyl-1-(4-sulfobutyl)-2H-indol-2-ylidene]-ethylidene]-1-cyclohexen-1-yl]-ethenyl]-3,3-dimethyl-1-(4-sulfobutyl)-3H-indolium hydroxide, inner salt sodium salt]",uptake (internalization) in cell lines,[1],does not internalize in the cells
same,accumulation in liver tumors,[2]; listed as free indocyanine,did not accumulate in tumors
same,accumulation in liver tumors,[2],does not accumulate
same,effect on cells after NIR irradiation,[3],no significant effect
CNC(=O)c1cc(Oc2ccc(NC(=O)Nc3ccc(Cl)c(C(F)(F)F)c3)cc2)ccn1 [Sorafenib],anti-tumor efficacy in liver tumor model,[4],multiple liver tumors
Cc1onc(-c2ccccc2)c1-c1ccc(S(N)(=O)=O)cc1 [Valdecoxib],formation of nanoparticles with indocyanine,[5],did not
